Values quoted from earlier work, collected in EP3466413A1, “PHARMACEUTICAL COMPOSITION CONTAINING AGOMELATINE AND PROCESS FOR THE PREPARATION THEREOF” (KRKA, d.d., Novo mesto, priority 2017, dated 2019).
Values after ≈ are worked out from the molar mass of the structure shown. Read-outs that look alike come from different tables or passages of the source.

Tests used:
[1] = second (proton) dissociation step, aqueous solution
[2] = crystalline powder

pKa2 [1]	solubility in aqueous buffers (aqueous buffers)	solubility in aqueous solution (aqueous solution over the physiological pH range)	solubility (dichloromethane)	solubility (methanol)	solubility in organic solvents (organic solvents such as methanol and dichloromethane)	solubility in water (water)	hygroscopicity [2]	SMILES
4.19	–	–	–	–	–	–	–	O=C(O)C(=O)O [oxalic acid]
–	very slightly soluble	very slightly soluble	~80 mg/mL (≈ 329 mM)	approximately 500 mg/ml	freely soluble	practically insoluble	non-hygroscopic	COc1ccc2cccc(CCNC(C)=O)c2c1 [Agomelatine, N[2-(7-methoxy-1-naphthyl)ethyl] acetamide]
